Consider one compound from patent publication US8748485B2, “Compound and medical use thereof” (Ono Pharmaceuticals Co., Ltd., priority 2010, dated 2014).

Bounds are passed on as bounds.

Data set [1] is described as follows: Simulation of kinetics in human blood on basis of results of kinetic study in dogs. The settings on record: simulated in humans versus SINEMET 100 mg tablet. As to the method: (4) Simulation of Kinetics in Human Blood on Basis of Results of Kinetic Study in Dogs
For the purpose of validating whether or not the effect of releasing levodopa over a long period of time of the compound of the present invention observed in the kinetic study in dogs is also observed in humans, a simulation of kinetics in human blood was carried out on the basis of the results of the kinetic study in dogs described in the above section (3).
By using the values obtained in the kinetic study in dog blood in the above section (3), a prediction model that simulates the kinetics in human blood was constructed.
Specifically, the blood concentration-time profile of levodopa or the compound of the present invention obtained in the kinetic study in dogs was input into Phoenix WinNonlin version 6.1 (Pharsight Corporation), which is kinetic analysis software, and the fitting of the plasma concentration of levodopa was carried out, whereby a prediction model that simulates the blood kinetics of levodopa was constructed.
Into this prediction model, the values of blood kinetics when a levodopa preparation was administered to humans described in the literature (Br. J. Clin. Pharm., 1989, Vol. 28, pp. 61-69, D. R. C. Robertson et al.) were input, and the kinetics of the compound of the present invention in human blood was simulated. […]

The nature of data set [2]: Kinetic study in dogs (combination use with dopa decarboxylase inhibitor carbidopa). The note with it: dogs given carbidopa 60 mg/kg; oral Example 5 18.6 mg/kg (6 mg/kg expressed in terms of levodopa). Format: in vivo, dogs (male beagle dogs). As to the method:
(3) Kinetic Study in Dogs (Combination Use with Dopa Decarboxylase Inhibitor (DCI)) […] As the DCI, carbidopa was used. […] The preparation of an analytical sample and analysis were carried out according to the method described in the same section in the Biological Example 1(1).

The test system of data set [3] is rat model injected with 6-hydroxydopamine into the medial forebrain bundle. The data set is described as follows: Rotation test in model injected with 6-hydroxydopamine into medial forebrain bundle. It counts as in vivo, rats (male Crl:CD(SD)IGS). The settings on record: 6-OHDA rats. From the text:
In the experiment, male Crl:CD(SD)IGS rats (Charles River Japan, Inc.) supplied at 5 weeks of age were used. The rats were housed in Econ cages (4 or less rats per cage) and were raised by giving free access to solid feed CRF-1 (Oriental Yeast Co., Ltd.) and tap water (in a water bottle) until they were subjected to the experiment. When acclimation after shipping was completed, each of the Crl:CD(SD)IGS rats at 6 weeks of age was anesthetized with pentobarbital sodium (Somnopentyl (registered trademark) injectable solution, 35 mg/kg, intraperitoneal injection). Subsequently, for the purpose of preventing damage to norepinephrine neurons by 6-hydroxydopamine (6-OHDA), desipramine (25 mg/kg) was intraperitoneally injected, and the rat was held and fixed by a brain fixation device. A small bone window was opened with a hand drill at a desired site, and 6-OHDA was injected into the medial forebrain bundle according to the brain atlas of Paxinos and Watson using a 30 G cannula (Brain Science Idea. Co. Ltd.) with a needle tip cut at an angle of 45° (site of injection: A=−4.5 mm, L=+1.2 mm, and V=−7.8 mm with respect to the bregma, injection amount: 8 μg/4 μL/8 min/site in each case). […] Thereafter, the burr hole was closed with an instant glue, and then sutured and disinfected with iodine tincture. […] In a rotation test, a device configured such that a black plastic circular cylinder having a diameter of 30 cm and a height of 35 cm was placed upright in a black-painted bowl having an opening diameter of 35 cm and a bottom diameter of 17 cm was used (the height of the curve from the bottom of the bowl to the bottom edge of the cylinder was set to 7 cm). The rat was placed in the device (one rat per device) and acclimated to the device for 30 minutes. Thereafter, a test substance was administered to the rat, and the rat was returned to the same device and videotaped. […] As for the number of rotations, a 360° rotation in one direction was determined to be one rotation. In the case where the direction (body's direction of movement or movement direction) was changed during rotation, the rotation was not included in the count. […] Incidentally, in each case, benserazide which is a dopa decarboxylase inhibitor (8 mg/kg) was orally administered concomitantly. […] In addition, the respective values are each a mean of the values obtained using 11 rats in each group and its standard error.

Another data set relates to p53R2. The data set is described as follows: Mutagenicity assay using mammalian cells (NESMAGET method). It counts as cell-based. As to the method:
In the treatment of Parkinson's disease and/or Parkinson's syndrome, there is a possibility that a levodopa prodrug is continued to be taken over a long period of time of several years to several decades. Therefore, an evaluation was carried out as to whether or not the compound of the present invention has mutagenicity by a mutagenicity assay using mammalian cells.
A mutagenicity assay using mammalian cells was carried out as a commissioning test to be undertaken by Nissin Foods Holdings Co., Ltd. The present method also called NESMAGET method is a method in which the expression of p53R2 which is a DNA repair gene is detected by luciferase activity, and the specific experimental technique is described in JP-A-2005-000024 and Japanese Patent No. 4243716. In the determination as to whether or not the result of this test was positive, the luciferase activity of p53R2 in the case of a vehicle control (0.3% dimethylsulfoxide) was taken as 100%, and a concentration at which a relative luciferase activity exceeded 200% was determined to be “concentration at which mutagenicity was determined to be positive”.

Data set [4] in a line: Kinetic study in dogs (oral administration, plasma levodopa). The note with it: dog, in vivo, po, 3 mg/kg. From the text:
The relationship between the blood concentration of levodopa and side effects in patients who take levodopa has been gradually elucidated. […] In order to reduce the number of doses of levodopa and avoid side effects such as dyskinesia and wearing-off in patients who take levodopa, it is necessary to maintain the blood concentration of levodopa within a therapeutic range as long as possible.
These levodopa prodrugs are prodrugs containing an ester bond, and therefore, it is considered that among a number of enzymes, carboxyesterase plays the most important role in the process of producing levodopa by metabolizing the compound after the compound is administered in vivo. Therefore, as an animal species to be used for performing a kinetic study, dogs in which the organ distribution of carboxyesterase is most similar to that of humans were selected as subjects for evaluation.
The thus obtained drug solution was administered by gavage through a gastric tube into the stomach of dogs (male beagle dogs) which were fasted from the day before the administration. At 15 and 30 minutes, and 1, 2, 4, 6, and 8 hours after administration of the drug solution, 1 mL of blood was collected from a cephalic vein with a heparinized syringe. Immediately after the collection, the collected blood was centrifuged in a desktop centrifuge at 14500 rpm for 45 seconds. Then, acetonitrile containing 0.1125% formic acid was added to the thus obtained plasma in an amount as twice as large as the volume of the plasma, followed by stirring, and then, the resulting sample was stored at −20° C. until measurement.
The sample was thawed on the measurement day, followed by stirring and centrifugation at 13000 rpm for 3 minutes (at 4° C.). The resulting supernatant was filtered and the filtrate was analyzed by LC/MS/MS. The analysis was performed by LC/MS/MS under the following conditions.
Measurement Apparatus: API-5000 (manufactured by Applied Biosystems, Inc.)
Analytical column: CAPCELL PAK CR (1:4) (4.6 mm, I.D.×250 mm, 5 μm)
Analytical column temperature: 40° C.
Mobile phase: A: 5 mM ammonium formate (pH 3.9), B: acetonitrile (A/B=17/3)
Detection (levodopa): m/z (precursor): 196.19, m/z (product): 134.99
DP (Declustering Potential): −60
CE (Collision Energy): −25
CXP (Collision Cell Exit Potential): −17
Incidentally, the numerical value in the column which indicates the dose expressed in terms of levodopa refers to a dose equivalent to that of levodopa.

For the compound `CC(C)(OC(=O)c1ccccc1)C(=O)Oc1ccc(C[C@H](N)C(=O)O)cc1OC(=O)C(C)(C)OC(=O)c1ccccc1.Cl` [Example 5, (2S)-2-Amino-3-(3,4-bis((2-(benzoyloxy)-2-methylpropanoyl)oxy)phenyl)propanoic acid hydrochloride], the “time in the therapeutic range in humans relative to the currently available levodopa preparation” value in data set [1] is “about 3.4 times”. Further, the “time after administration at which plasma levodopa reached Cmax” value in data set [2] is 4 h. Further, the “lapse from administration after which the number of rotations began to increase” value in data set [3] (oral Example 5 100 mg/kg expressed in terms of levodopa, benserazide 8 mg/kg) is not below 60 min. Moreover, the “time after administration at which the number of rotations reached a maximum value” in data set [3] (oral, levodopa 30 mg/kg or Example 5 100 mg/kg expressed in terms of levodopa, benserazide 8 mg/kg) was 140 min. Moreover, in data set [3] (oral, levodopa 30 mg/kg or Example 5 100 mg/kg expressed in terms of levodopa, benserazide 8 mg/kg concomitantly, N=11), the “maximum value of the number of rotations per 10 minutes” value was not below 90 times. Besides, the “Mutagenicity assay (NESMAGET) Concentration at which mutagenicity was determined to be positive” value in the data set with p53R2 (concentration at which relative luciferase activity of p53R2 exceeded 200% (vehicle control 0.3% dimethylsulfoxide = 100%)) is more than 200 µg/mL. In addition, the determination of mutagenicity entry in the data set with p53R2 (positive = relative luciferase activity of p53R2 exceeded 200%, compound of the present invention up to 200 μg/mL) is “mutagenicity was not observed”. Also, the “AUC (area under the blood concentration-time curve of levodopa)” value in data set [4] is recorded as 0.89 μg^+ hr/mL. Moreover, the “Cmax/C6 hr (ratio of maximum plasma concentration and plasma concentration at 6 hours after oral administration, levodopa)” value in data set [4] (male, beagle) stood at 8.0.
